Measurements from paper PMC7332671 (Acta Pharmaceutica Sinica. B, 2020).
Like-named read-outs stand apart in the source and are kept apart here.

Columns and labels:
Assay in all cases: SPR
Assay type in all cases: binding
P53 [1] = biological target: T1, P53 (Homo sapiens, UniProt P04637)
P53 [2] = biological target: T1, P53; remark: listed apart in the source
P53 [3] = biological target: T1, P53; remark: listed apart in the source

T1 sequence (P04637 94-312): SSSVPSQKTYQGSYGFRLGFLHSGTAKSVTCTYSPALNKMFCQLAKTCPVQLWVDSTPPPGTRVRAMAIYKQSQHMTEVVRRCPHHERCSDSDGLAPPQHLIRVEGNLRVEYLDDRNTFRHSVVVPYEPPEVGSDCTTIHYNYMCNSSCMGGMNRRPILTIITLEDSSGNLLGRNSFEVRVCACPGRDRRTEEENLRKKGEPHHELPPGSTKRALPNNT

| Compound | Kd (P53 [1]) | other results |
| --- | --- | --- |
| 20(S)-Ro | 10.2 µM |  |
| CC(C)=CCC[C@](C)(O)[C@H]1CC[C@]2(C)[C@@H]1[C@H](O)C[C@@H]1[C@@]3(C)CC[C@H](O)C(C)(C)[C@@H]3CC[C@]12C [20(S)-PPD] | 41.1 µM |  |
| CC(C)=CCC[C@](C)(O)[C@H]1CC[C@]2(C)[C@@H]1[C@H](O)C[C@@H]1[C@@]3(C)CC[C@H](O)C(C)(C)[C@@H]3[C@@H](O)C[C@]12C [(S)-PPT, 20(S)-Protopanaxatriol] |  | Kd (P53 [2]): 6.63 µM |
| CCn1c2ccccc2c2cc(CNC)ccc21 [PhiKan083] |  | Kd (P53 [3]): 122 µM |
